± gives the expanded uncertainty stated by the source.
Conditions: Liquid

CCCCCCCCCCCCCC[P+](CCCCCC)(CCCCCC)CCCCCC.O=S(=O)([N-]S(=O)(=O)C(F)(F)F)C(F)(F)F
mass density [kg/m3]
Conditions	283.15 K	293.15 K	303.15 K	313.15 K	323.15 K	333.15 K
100 kPa	1077.4 ± 0.8	1070 ± 0.7	1062.7 ± 0.7	1055.4 ± 0.7	1048 ± 0.7	1040.8 ± 0.6
1000 kPa	1077.9 ± 0.8	1070.5 ± 0.8	1063.3 ± 0.7	1056 ± 0.7	1048.7 ± 0.7	1041.5 ± 0.7
2000 kPa	1078.4 ± 0.8	1071.2 ± 0.8	1063.9 ± 0.8	1056.7 ± 0.7	1049.3 ± 0.7	1042.2 ± 0.7
3000 kPa	1079 ± 0.8	1071.8 ± 0.8	1064.5 ± 0.8	1057.3 ± 0.8	1050.1 ± 0.7	1042.9 ± 0.7
4000 kPa	1079.6 ± 0.9	1072.3 ± 0.8	1065.2 ± 0.8	1057.9 ± 0.8	1050.7 ± 0.7	1043.6 ± 0.7
5000 kPa	1080.2 ± 0.9	1072.9 ± 0.9	1065.8 ± 0.8	1058.6 ± 0.8	1051.4 ± 0.8	1044.4 ± 0.7
10000 kPa	1083 ± 1	1075.9 ± 1	1068.8 ± 0.9	1061.7 ± 0.9	1054.7 ± 0.9	1047.8 ± 0.8
15000 kPa	1085.6 ± 1.2	1078.6 ± 1.1	1071.8 ± 1.1	1064.9 ± 1	1057.9 ± 1	1051.2 ± 0.9
20000 kPa	1088.3 ± 1.3	1081.4 ± 1.3	1074.7 ± 1.2	1067.8 ± 1.1	1061 ± 1.1	1054.3 ± 1
25000 kPa	1090.8 ± 1.5	1084 ± 1.4	1077.4 ± 1.4	1070.7 ± 1.3	1064 ± 1.2	1057.4 ± 1.1
30000 kPa	1093.3 ± 1.7	1086.6 ± 1.6	1080.1 ± 1.5	1073.5 ± 1.4	1066.9 ± 1.3	1060.4 ± 1.3
35000 kPa	1095.6 ± 1.8	1089.1 ± 1.7	1082.7 ± 1.7	1076.2 ± 1.6	1069.8 ± 1.5	1063.3 ± 1.4
40000 kPa	1097.9 ± 2	1091.5 ± 1.9	1085.1 ± 1.8	1078.8 ± 1.7	1072.4 ± 1.6	1066.2 ± 1.5
45000 kPa	1100.2 ± 2.2	1093.9 ± 2.1	1087.7 ± 2	1081.3 ± 1.9	1075.1 ± 1.8	1068.9 ± 1.7

CCCCCCCCCCCCCC[P+](CCCCCC)(CCCCCC)CCCCCC.N#C[N-]C#N [tetradecyl(trihexyl)phosphonium dicyanamide]
mass density [kg/m3]
Conditions	283.15 K	293.15 K	303.15 K	313.15 K	323.15 K	333.15 K
100 kPa	907.5 ± 0.7	901.7 ± 0.7	895.9 ± 0.8	890.2 ± 0.8	884.3 ± 0.8	878.6 ± 0.8
1000 kPa	908 ± 0.8	902.1 ± 0.8	896.4 ± 0.8	890.6 ± 0.8	884.8 ± 0.8	879.2 ± 0.8
2000 kPa	908.4 ± 0.8	902.6 ± 0.8	896.9 ± 0.8	891.2 ± 0.8	885.4 ± 0.9	879.7 ± 0.9
3000 kPa	908.9 ± 0.8	903.1 ± 0.8	897.4 ± 0.8	891.6 ± 0.9	885.9 ± 0.9	880.2 ± 0.9
4000 kPa	909.3 ± 0.8	903.5 ± 0.9	897.9 ± 0.9	892.1 ± 0.9	886.5 ± 0.9	880.8 ± 0.9
5000 kPa	909.8 ± 0.9	904 ± 0.9	898.3 ± 0.9	892.7 ± 0.9	887 ± 1	881.3 ± 1
10000 kPa	912.1 ± 1	906.3 ± 1	900.7 ± 1	895.1 ± 1.1	889.5 ± 1.1	884 ± 1.1
15000 kPa	914.3 ± 1.1	908.5 ± 1.1	903 ± 1.2	897.5 ± 1.2	892 ± 1.3	886.6 ± 1.3
20000 kPa	916.2 ± 1.2	910.7 ± 1.3	905.3 ± 1.3	899.9 ± 1.3	894.4 ± 1.4	889.1 ± 1.4
25000 kPa	918.3 ± 1.3	912.8 ± 1.4	907.5 ± 1.4	902.1 ± 1.5	896.7 ± 1.5	891.4 ± 1.6
30000 kPa	920.3 ± 1.4	914.9 ± 1.5	909.6 ± 1.5	904.3 ± 1.6	899 ± 1.7	893.9 ± 1.7
35000 kPa	922.2 ± 1.5	916.9 ± 1.6	911.6 ± 1.6	906.5 ± 1.7	901.4 ± 1.8	896.2 ± 1.8
40000 kPa	924.2 ± 1.6	918.9 ± 1.7	913.7 ± 1.7	908.5 ± 1.8	903.4 ± 1.9	898.3 ± 2
45000 kPa	926.1 ± 1.7	920.9 ± 1.8	915.7 ± 1.8	910.7 ± 1.9	905.6 ± 2	900.5 ± 2.1

CCCCCCCCCCCCCC[P+](CCCCCC)(CCCCCC)CCCCCC.[Br-] [tetradecyltrihexylphosphonium bromide]
mass density [kg/m3]
Conditions	283.15 K	293.15 K	303.15 K	313.15 K	323.15 K	333.15 K
100 kPa	962.7 ± 0.6	956.5 ± 0.6	950.3 ± 0.6	944.1 ± 0.6	937.8 ± 0.7	931.7 ± 0.7
1000 kPa	963.2 ± 0.6	957.1 ± 0.6	950.9 ± 0.6	944.6 ± 0.7	938.4 ± 0.7	932.3 ± 0.7
2000 kPa	963.7 ± 0.6	957.6 ± 0.6	951.4 ± 0.6	945.3 ± 0.7	939 ± 0.7	933 ± 0.7
3000 kPa	964.2 ± 0.6	958.1 ± 0.6	952 ± 0.7	945.8 ± 0.7	939.7 ± 0.7	933.6 ± 0.7
4000 kPa	964.8 ± 0.6	958.7 ± 0.7	952.6 ± 0.7	946.4 ± 0.7	940.3 ± 0.7	934.2 ± 0.7
5000 kPa	965.3 ± 0.6	959.2 ± 0.7	953.1 ± 0.7	947 ± 0.7	941 ± 0.7	934.9 ± 0.8
10000 kPa	967.9 ± 0.7	961.9 ± 0.7	955.9 ± 0.7	949.8 ± 0.8	943.9 ± 0.8	938 ± 0.8
15000 kPa	970.3 ± 0.7	964.5 ± 0.7	958.6 ± 0.8	952.7 ± 0.8	946.8 ± 0.9	941 ± 0.9
20000 kPa	972.8 ± 0.7	967 ± 0.8	961.2 ± 0.8	955.4 ± 0.9	949.7 ± 0.9	943.9 ± 1
25000 kPa	975.3 ± 0.7	969.3 ± 0.8	963.8 ± 0.9	958 ± 0.9	952.4 ± 1	946.8 ± 1
30000 kPa	977.6 ± 0.8	971.8 ± 0.8	966.3 ± 0.9	960.6 ± 1	955.1 ± 1	949.6 ± 1.1
35000 kPa	979.8 ± 0.8	974.2 ± 0.8	968.7 ± 0.9	963.2 ± 1	957.7 ± 1	952.3 ± 1.1
40000 kPa	982 ± 0.8	976.5 ± 0.8	971 ± 0.9	965.5 ± 1	960.2 ± 1.1	954.9 ± 1.2
45000 kPa	984.2 ± 0.8	978.8 ± 0.8	973.4 ± 0.9	967.9 ± 1	962.7 ± 1.1	957.3 ± 1.2

CCCCCCCCCCCCCC[P+](CCCCCC)(CCCCCC)CCCCCC.[Cl-] [trihexyl(tetradecyl)phosphonium chloride]
mass density [kg/m3]
Conditions	283.15 K	293.15 K	303.15 K	313.15 K	323.15 K	333.15 K
100 kPa	898.4 ± 0.8	892.4 ± 0.8	886.5 ± 0.8	880.6 ± 0.8	874.8 ± 0.8	868.9 ± 0.8
1000 kPa	898.8 ± 0.8	892.9 ± 0.8	887 ± 0.8	881.1 ± 0.8	875.3 ± 0.8	869.4 ± 0.9
2000 kPa	899.3 ± 0.8	893.4 ± 0.8	887.5 ± 0.8	881.7 ± 0.9	875.8 ± 0.9	870 ± 0.9
3000 kPa	899.8 ± 0.8	893.9 ± 0.9	888 ± 0.9	882.2 ± 0.9	876.4 ± 0.9	870.6 ± 0.9
4000 kPa	900.3 ± 0.9	894.4 ± 0.9	888.5 ± 0.9	882.7 ± 0.9	876.9 ± 1	871.1 ± 1
5000 kPa	900.7 ± 0.9	894.9 ± 0.9	889.1 ± 0.9	883.3 ± 1	877.6 ± 1	871.8 ± 1
10000 kPa	903.1 ± 1	897.3 ± 1.1	891.5 ± 1.1	885.9 ± 1.1	880.2 ± 1.2	874.5 ± 1.2
15000 kPa	905.3 ± 1.2	899.6 ± 1.2	894 ± 1.2	888.4 ± 1.3	882.8 ± 1.3	877.3 ± 1.4
20000 kPa	907.5 ± 1.3	901.8 ± 1.3	896.3 ± 1.4	890.8 ± 1.4	885.3 ± 1.5	879.9 ± 1.5
25000 kPa	909.6 ± 1.4	904 ± 1.5	898.6 ± 1.5	893.2 ± 1.6	887.8 ± 1.6	882.5 ± 1.7
30000 kPa	911.7 ± 1.5	906.3 ± 1.6	900.8 ± 1.6	895.5 ± 1.7	890.1 ± 1.8	884.9 ± 1.8
35000 kPa	913.7 ± 1.6	908.3 ± 1.7	903 ± 1.8	897.7 ± 1.8	892.6 ± 1.9	887.3 ± 2
40000 kPa	915.7 ± 1.7	910.3 ± 1.8	905.1 ± 1.9	899.9 ± 1.9	894.8 ± 2	889.6 ± 2.1
45000 kPa	917.6 ± 1.8	912.4 ± 1.9	907.2 ± 2	902.1 ± 2.1	897 ± 2.1	892 ± 2.2

CCCCCCCCCCCCCC[P+](CCCCCC)(CCCCCC)CCCCCC.CS(=O)(=O)[O-] [trihexyltetradecylphosphonium methanesulfonate]
mass density [kg/m3]
Conditions	283.15 K	293.15 K	303.15 K	313.15 K	323.15 K	333.15 K
100 kPa	938 ± 0.7	931.8 ± 0.7	925.7 ± 0.7	919.6 ± 0.7	913.4 ± 0.7	907.4 ± 0.7
1000 kPa	938.4 ± 0.7	932.3 ± 0.7	926.2 ± 0.7	920.1 ± 0.7	914 ± 0.7	908.1 ± 0.8
2000 kPa	938.9 ± 0.7	932.8 ± 0.7	926.7 ± 0.7	920.7 ± 0.7	914.6 ± 0.8	908.7 ± 0.8
3000 kPa	939.5 ± 0.7	933.4 ± 0.7	927.3 ± 0.7	921.3 ± 0.8	915.3 ± 0.8	909.3 ± 0.8
4000 kPa	940.1 ± 0.7	933.9 ± 0.7	927.9 ± 0.8	921.9 ± 0.8	915.9 ± 0.8	910 ± 0.8
5000 kPa	940.5 ± 0.7	934.4 ± 0.8	928.4 ± 0.8	922.5 ± 0.8	916.6 ± 0.8	910.6 ± 0.9
10000 kPa	943.1 ± 0.8	937.1 ± 0.8	931.3 ± 0.9	925.3 ± 0.9	919.5 ± 0.9	913.7 ± 1
15000 kPa	945.6 ± 0.9	939.7 ± 0.9	934 ± 1	928.1 ± 1	922.3 ± 1	916.7 ± 1.1
20000 kPa	948 ± 0.9	942.2 ± 1	936.6 ± 1	930.8 ± 1.1	925.2 ± 1.1	919.6 ± 1.2
25000 kPa	950.3 ± 1	944.6 ± 1.1	939 ± 1.1	933.5 ± 1.2	927.9 ± 1.2	922.3 ± 1.3
30000 kPa	952.7 ± 1	947.1 ± 1.1	941.5 ± 1.2	935.9 ± 1.2	930.5 ± 1.3	925 ± 1.4
35000 kPa	954.9 ± 1.1	949.4 ± 1.2	943.8 ± 1.2	938.4 ± 1.3	933.1 ± 1.4	927.7 ± 1.4
40000 kPa	957.1 ± 1.1	951.6 ± 1.2	946.2 ± 1.3	940.8 ± 1.4	935.5 ± 1.4	930.2 ± 1.5
45000 kPa	959.3 ± 1.1	953.9 ± 1.2	948.5 ± 1.3	943.3 ± 1.4	938.1 ± 1.5	932.7 ± 1.6

Reference: the NIST ThermoML archive (doi:10.1021/je101232g)
